According to US20050113253A1, “Fertilizer” (priority 2003, published 2005):

Tests used:
[1] = also printed as 187° F.; cited from earlier work
[2] = Solubility of prodiamine in N-methyl pyrrolidone liquid carrier; format: physicochemical; settings: N-methyl pyrrolidone as liquid carrier; heating and gentle mixing
Source text: For example, when N-methyl pyrrolidone is used as the liquid carrier for prodiamine, concentrations of 50 wt. % or more can be easily achieved by heating and gentle mixing. For convenience, however, concentrations on the order of 10 to 50 wt. %, and especially about 30 to 40 wt. %, are appropriate.
A mixture of 37.6 wt. % Prodiamine Technical Grade Herbicide (94.8% active) obtained from SipCam Aro USA of Roswell, Ga., and 62.4 wt. % M-Pyrol (N-methyl pyrrolidone) solvent obtained from ISP Technologies, Inc., of Wayne, N.J., was heated to about 75° C. (about 165° F.) with mechanical stirring until the prodiamine completely dissolved. The composition so obtained was then allowed to cool to ambient and then sprayed onto a moving bed of particulate fertilizer composed of a mixture of different fertilizer ingredients having particle sizes ranging from 4.75 to 1.18 mm, a combined bulk density of 0.92 gms/cc and containing about 24% nitrogen, 5% phosphorous and 11% potassium, measured as units of total nitrogen (N), available phosphate (P2O5) and soluble potash (K2O).

CN1CCCC1=O [N-methyl pyrrolidone]
flash point [1]: ~86 °C

CCCN(CCC)c1c([N+](=O)[O-])cc(C(F)(F)F)c(N)c1[N+](=O)[O-] [prodiamine, 2,4-dinitro-N^3,N^3-di-n-propyl-6-(trfluoromethyl)-1,3-benzenediamine]
concentration achievable (dissolved) in N-methyl pyrrolidone [2]: ≥ 50 wt. %
